{"source": "paper PMC12657942", "about": "“Measurement and modeling of rizatriptan in supercritical CO2 for pharmaceutical processing” (Scientific Reports, 2025)", "assay_type_in_all_cases": "physicochemical", "key": {"[1]": {"assay": "Enthalpies (total, vaporization, solvation) derived from density-based solubility models", "conditions": "SC-CO2", "experimental": "This study thoroughly examines the solubility of rizatriptan in SC-CO2 for pharmaceutical processing by supercritical fluid technology. A series of experimental solubility measurements were conducted at a range of temperatures, from 308.2 to 338.2 K, and pressures ranging from 12 to 30 megapascals. Seven density-based models ( Chrastil, Bartle, K–J, Méndez–Santiago–Teja, Bian et al., and Sodeifian et al. (Ⅰ and Ⅱ)) and three equations of state (Peng–Robinson, Soave–Redlich–Kwong, and regular solution) were employed to analyze the resulting data. Additionally, the enthalpies of the total, vaporization, and solvation processes were derived to elucidate phase behavior.\nThis leads to the logarithmic relationship, where the enthalpy term combines solvation and vaporization effects\nThe Bartle model extends the concept by normalizing solubility with pressure and using a reduced density term, allowing direct estimation of the solute’s heat of vaporization from parameter. […] The MST model was derived from a Taylor expansion of the Helmholtz free energy near the solvent’s critical point, focusing on infinite dilution behavior. By incorporating the Clausius–Clapeyron equation for missing sublimation pressure data, it becomes a robust three-parameter tool. It excels in self-consistency checks, where plotting ) against density (ρ), should yield a single line for reliable data. […]"}, "[2]": {"assay": "Preliminary tests of equilibration time for solubility in SC-CO2 (Table S1)", "conditions": "supercritical CO2, 65 °C, organic solvent or mixture, thermodynamic from solid, read-out: Solubility (preliminary test)", "experimental": "(§1) A specialized high-pressure system is employed to measure the solubility of rizatriptan using gravimetric techniques in a supercritical CO2[6]. A 200 mL vessel capable of withstanding pressures up to 35 MPa and temperatures up to 423 K is prepared with leak-free seals, valves, and fittings. All valves and connectors were 1/8 inch in size. The system’s pressure and temperature sensors are calibrated for accuracy. Next, 2000 mg of rizatriptan powder is weighed precisely using an analytical balance with 0.01 mg of sensitivity. The powder is then compacted into 5-mm diameter tablets to ensure uniformity and structural integrity. The tablets are placed in a basket inside the vessel to maximize their exposure to SC-CO2. CO2 is introduced gradually using a high-precision pump (SC-1000, SUPEREX), with the pressure increased in 0.05 MPa increments to maintain stability. The pressure is monitored and held within ± 0.01 MPa. Temperature is controlled within ± 0.1 K using a thermocouple, and the mixture is stirred at 250 rpm to ensure uniformity. […] The pressure and temperature indicators are checked to ensure stability. After equilibration, the vessel is carefully depressurized to ambient conditions to halt dissolution without losing the sample. The remaining tablets are then removed and cleaned of residual CO2. If needed, they are dried in a desiccator. The undissolved drug is weighed using a high-precision balance. The experiment is replicated at least three times to calculate the mean solubility and standard deviation. The following formula was used to calculate the mass of dissolved rizatriptan:1\nTable S1. Preliminary tests."}, "[3]": {"assay": "Solubility of rizatriptan in supercritical CO2, static gravimetric method", "experimental": "as §1\nInclude the molecular weights of rizatriptan ([…]) and CO2 (44.01 g/mol) in the mole fraction calculations.2 3 4 5\nThe measurements were conducted at four isotherms (308.2 K, 318.2 K, 328.2 K, and 338.2 K) and […] pressure points (12, 15, 18, 21, 24, 27, 30 MPa). Table 3 documents the experimental conditions, including temperature, pressure, SC-CO2 density, mole fraction, standard deviation, and solubility in grams per liter."}}}
{"smiles": "CN(C)CCc1c[nH]c2ccc(Cn3cncn3)cc12", "note": "[Rizatriptan, Rizatriptan benzoate]", "values": [{"measurement": "enthalpy of vaporization", "setting": "[1]", "value": 50.55, "unit": "kJ/mol"}, {"measurement": "overall (total) enthalpy", "setting": "[1]", "value": 38.06, "unit": "kJ/mol"}, {"measurement": "solubility at 60 min", "setting": "[2]; T 338, P 30, Time 60", "value": "0.0788 ± 0.0007", "unit": "mg/mL"}, {"measurement": "solubility at 90 min", "setting": "[2]; T 338, P 30, Time 90", "value": "0.1676 ± 0.0008", "unit": "mg/mL"}, {"measurement": "solubility at 120 min", "setting": "[2]; T 338, P 30, Time 120", "value": "0.2129 ± 0.0008", "unit": "mg/mL"}, {"measurement": "solubility at 150 min", "setting": "[2]; T 338, P 30, Time 150", "value": "0.279 ± 0.0011", "unit": "mg/mL"}, {"measurement": "solubility at 180 min", "setting": "[2]; T 338, P 30, Time 180", "value": "0.2858 ± 0.0012", "unit": "mg/mL"}, {"measurement": "solubility at 210 min", "setting": "[2]; T 338, P 30, Time 210", "value": "0.3018 ± 0.0014", "unit": "mg/mL"}, {"measurement": "solubility at 240 min", "setting": "[2]; T 338, P 30, Time 240", "value": "0.3018 ± 0.0015", "unit": "mg/mL"}, {"measurement": "mole fraction in SC-CO2", "setting": "[3]; 308.2 K, 12 MPa", "value": "0.09 × 10^−4"}, {"measurement": "mole fraction in SC-CO2", "setting": "[3]; 308.2 K, 30 MPa", "value": "0.286 × 10^−4"}, {"measurement": "mole fraction in SC-CO2", "setting": "[3]; 328.2 K, 12 MPa", "value": "0.45 × 10^−5"}, {"measurement": "mole fraction in SC-CO2", "setting": "[3]; 328.2 K, 30 MPa", "value": "3.80 × 10^−5"}, {"measurement": "mole fraction in SC-CO2", "setting": "[3]; 338.2 K, 12 MPa", "value": "0.024 × 10^−4"}, {"measurement": "mole fraction in SC-CO2", "setting": "[3]; 338.2 K, 30 MPa", "value": "0.419 × 10^−4"}, {"measurement": "mole fraction y in SC-CO2", "setting": "[3]; 338.2 K, 30 MPa", "value": "4.19 × 10^−5"}, {"measurement": "Experimental mole fraction (y) in supercritical carbon dioxide, y × 10^4", "setting": "[3]; T 308.0 K (text 308.2 K), P 12 MPa, ρCO2 768.52 kg/m^3", "value": "0.090 × 10^4"}, {"measurement": "Experimental mole fraction (y) in supercritical carbon dioxide, y × 10^4", "setting": "[3]; T 308.0 K (text 308.2 K), P 15 MPa, ρCO2 816.10 kg/m^3", "value": "0.121 × 10^4"}, {"measurement": "Experimental mole fraction (y) in supercritical carbon dioxide, y × 10^4", "setting": "[3]; T 308.0 K (text 308.2 K), P 18 MPa, ρCO2 816.10 kg/m^3", "value": "0.141 × 10^4"}, {"measurement": "Experimental mole fraction (y) in supercritical carbon dioxide, y × 10^4", "setting": "[3]; T 308.0 K (text 308.2 K), P 21 MPa, ρCO2 874.55 kg/m^3", "value": "0.177 × 10^4"}, {"measurement": "Experimental mole fraction (y) in supercritical carbon dioxide, y × 10^4", "setting": "[3]; T 308.0 K (text 308.2 K), P 24 MPa, ρCO2 895.66 kg/m^3", "value": "0.227 × 10^4"}, {"measurement": "Experimental mole fraction (y) in supercritical carbon dioxide, y × 10^4", "setting": "[3]; T 308.0 K (text 308.2 K), P 27 MPa, ρCO2 913.70 kg/m^3", "value": "0.258 × 10^4"}, {"measurement": "Experimental mole fraction (y) in supercritical carbon dioxide, y × 10^4", "setting": "[3]; T 308.0 K (text 308.2 K), P 30 MPa, ρCO2 929.85 kg/m^3", "value": "0.286 × 10^4"}, {"measurement": "Experimental mole fraction (y) in supercritical carbon dioxide, y × 10^4", "setting": "[3]; T 318.0 K (text 318.2 K), P 12 MPa, ρCO2 659.80 kg/m^3", "value": "0.069 × 10^4"}, {"measurement": "Experimental mole fraction (y) in supercritical carbon dioxide, y × 10^4", "setting": "[3]; T 318.0 K (text 318.2 K), P 15 MPa, ρCO2 743.83 kg/m^3", "value": "0.126 × 10^4"}, {"measurement": "Experimental mole fraction (y) in supercritical carbon dioxide, y × 10^4", "setting": "[3]; T 318.0 K (text 318.2 K), P 18 MPa, ρCO2 790.29 kg/m^3", "value": "0.162 × 10^4"}, {"measurement": "Experimental mole fraction (y) in supercritical carbon dioxide, y × 10^4", "setting": "[3]; T 318.0 K (text 318.2 K), P 21 MPa, ρCO2 823.80 kg/m^3", "value": "0.215 × 10^4"}, {"measurement": "Experimental mole fraction (y) in supercritical carbon dioxide, y × 10^4", "setting": "[3]; T 318.0 K (text 318.2 K), P 24 MPa, ρCO2 850.15 kg/m^3", "value": "0.281 × 10^4"}, {"measurement": "Experimental mole fraction (y) in supercritical carbon dioxide, y × 10^4", "setting": "[3]; T 318.0 K (text 318.2 K), P 27 MPa, ρCO2 872.14 kg/m^3", "value": "0.322 × 10^4"}, {"measurement": "Experimental mole fraction (y) in supercritical carbon dioxide, y × 10^4", "setting": "[3]; T 318.0 K (text 318.2 K), P 30 MPa, ρCO2 890.90 kg/m^3", "value": "0.339 × 10^4"}, {"measurement": "Experimental mole fraction (y) in supercritical carbon dioxide, y × 10^4", "setting": "[3]; T 328.0 K (text 328.2 K), P 12 MPa, ρCO2 506.75 kg/m^3", "value": "0.045 × 10^4"}, {"measurement": "Experimental mole fraction (y) in supercritical carbon dioxide, y × 10^4", "setting": "[3]; T 328.0 K (text 328.2 K), P 15 MPa, ρCO2 654.94 kg/m^3", "value": "0.099 × 10^4"}, {"measurement": "Experimental mole fraction (y) in supercritical carbon dioxide, y × 10^4", "setting": "[3]; T 328.0 K (text 328.2 K), P 18 MPa, ρCO2 724.13 kg/m^3", "value": "0.176 × 10^4"}, {"measurement": "Experimental mole fraction (y) in supercritical carbon dioxide, y × 10^4", "setting": "[3]; T 328.0 K (text 328.2 K), P 21 MPa, ρCO2 768.74 kg/m^3", "value": "0.241 × 10^4"}, {"measurement": "Experimental mole fraction (y) in supercritical carbon dioxide, y × 10^4", "setting": "[3]; T 328.0 K (text 328.2 K), P 24 MPa, ρCO2 801.92 kg/m^3", "value": "0.302 × 10^4"}, {"measurement": "Experimental mole fraction (y) in supercritical carbon dioxide, y × 10^4", "setting": "[3]; T 328.0 K (text 328.2 K), P 27 MPa, ρCO2 828.51 kg/m^3", "value": "0.353 × 10^4"}, {"measurement": "Experimental mole fraction (y) in supercritical carbon dioxide, y × 10^4", "setting": "[3]; T 328.0 K (text 328.2 K), P 30 MPa, ρCO2 850.83 kg/m^3", "value": "0.380 × 10^4"}]}
